Laboratory results reported in patent publication US4261885A, “Novel somatostatin analogue” (Shiraimatsu Shingaku Co., Ltd., priority 1978, dated 1981).
Peptide text beside a SMILES is read from it.

How the values were obtained:
[1] = Stability in pharmaceutical preparations; type: physicochemical; conditions: when used in pharmaceutical preparations
mouse = assay: Acute toxicity, infusion into the tail vein of a test mouse; type: in vivo
Experimental: The experiment for determining acute toxicity is carried out by infusing this compound into the tail vein of a test mouse in the amount of 5 mg/kg of body weight.

Solubility in water = type: physicochemical
blood insulin levels = assay: Arginine-induced changes in blood insulin in rats (radioimmunoassay); type: in vivo, rat
Experimental: (§1) Studies were made of the effects of the compound of this invention on arginine-induced changes in blood glucose, insulin and glucagon levels and the results obtained were compared with those of somatostatin.
(§2) Male SD rats weighing 300 to 500 g were anesthetized with sodium pentobarbital (60 mg/kg of body weight, by intraabdominal puncture) and polyethylene catheters were placed in their carotid artery. Saline was infused over 10 minutes, and arginine was infused at a rate of 3 g/kg/hr, for 60 minutes, using an infusion pump (at a rate of 4.5 ml/kg/hr). For 30 minutes, immediately after the start of arginine infusion, somatostatin or the compound of this invention was infused at rates of 4 μg/kg/hr, as a basal dose, 40 μg/kg/hr as 10 times as the basal dose, and 400 μg/kg/hr, as 100 times as the basal dose, respectively.
(§3) Before and 15 minutes, 30 minutes and 60 minutes after the start of arginine infusion, blood samples were taken in the presence of heparine. Blood glucose values were measured by the glucose oxidase method, and blood insulin and glucagon values were measured by the radioimmunoassay method.

blood glucagon levels = assay: Arginine-induced changes in blood glucagon in rats (radioimmunoassay); type: in vivo, rat
Experimental: as §1, §2, §3

blood glucose levels = assay: Arginine-induced changes in blood glucose in rats (glucose oxidase method); type: in vivo, rat
Experimental: as §1, §2, §3

[2] = rats, arginine 3 g/kg/hr, substance infused for 30 minutes

C[C@@H](O)[C@@H]1NC(=O)[C@H](CCCCN)NC(=O)[C@@H](Cc2c[nH]c3ccccc23)NC(=O)[C@H](Cc2ccccc2)NC(=O)[C@H](Cc2ccccc2)NC(=O)[C@H](CC(N)=O)NC(=O)[C@H](CCCCN)NC(=O)CCCCC[C@H](C(=O)O)NC(=O)[C@H](CO)NC(=O)[C@H]([C@@H](C)O)NC(=O)[C@H](Cc2ccccc2)NC1=O [the compound of this invention, Des-(Ala^1,Gly^2)-(D-Trp^8,D-Asu^3,14)-somatostatin] (HELM PEPTIDE1{K.N.F.F.[dW].K.T.F.T.S.[O=C(O)[C@@H](CCCCCC(=O)[*:3])N[*:1]]}$PEPTIDE1,PEPTIDE1,1:R1-11:R3$$$V2.0)
stability compared with somatostatin [1]: far superior to somatostatin | changes or side effects in respect of body weight, body temperature and blood sugar value (mouse; tail vein infusion, 5 mg/kg of body weight): No significant changes or side effects were observed | acute toxicity (mouse; tail vein, concluded from the 5 mg/kg experiment): considered to be insignificant | solubility in water (Solubility in water): soluble in water

C[C@H](N)C(=O)NCC(=O)N[C@H]1CSSC[C@@H](C(=O)O)NC(=O)[C@H](CO)NC(=O)[C@H]([C@@H](C)O)NC(=O)[C@H](Cc2ccccc2)NC(=O)[C@H]([C@@H](C)O)NC(=O)[C@H](CCCCN)NC(=O)[C@H](Cc2c[nH]c3ccccc23)NC(=O)[C@H](Cc2ccccc2)NC(=O)[C@H](Cc2ccccc2)NC(=O)[C@H](CC(N)=O)NC(=O)[C@H](CCCCN)NC1=O [somatostatin]
effect after the suspension of infusion (blood insulin levels; 15 minutes after the suspension of infusion, conclusion on insulin and glucagon): its effect was no longer observed | effect on blood insulin level after suspension of infusion (blood insulin levels; 45 minutes after start of arginine infusion = 15 minutes after suspension of substance infusion): failed to exert its effect | rise in blood insulin levels versus control (blood insulin levels; at more than 10 times the basal dose, 15 minutes after start of arginine infusion): significantly inhibited | rise in blood insulin levels versus control (blood insulin levels; at more than 100 times the basal dose, 30 minutes after start of arginine infusion): significantly inhibited | rise in blood insulin levels (insulin secretion) enhanced by arginine (blood insulin levels; [2]): inhibited the rise in blood insulin levels dose dependently | effect on blood glucagon level (blood glucagon levels; 45 minutes after start of arginine infusion): lost its effect | blood glucagon level versus control (blood glucagon levels; at more than 10 times the basal dose, 15 minutes and 30 minutes after start of arginine infusion): significantly lowered its level | blood glucose level versus control (blood glucose levels; at 100 times the basal dose (basal 4 μg/kg/hr), 30 minutes after start of arginine infusion): Statistically significant low levels of blood glucose | blood glucose level versus control (blood glucose levels; at more than 10 times the basal dose (basal 4 μg/kg/hr), 15 minutes after start of arginine infusion): Statistically significant low levels of blood glucose | rise in blood glucose levels induced by arginine (blood glucose levels; [2]): inhibited
